Assay results published in patent US20210261642A1, “SOLUBILITY OF GLP-1 PEPTIDE” (Novo Nordisk A/S, priority 2017, published 2021).

Assay: Assay (I): Determination of Solubility (96-well plate, pH 3.0-11.0, organic solvent 0-70% w/w, UV absorption at 280 nm)
Type: physicochemical
Conditions: Method 1
Description: Assay (I): Determination of Solubility
96-Well Plate Preparation
96-well plates containing target peptide in a solid form were prepared in one of two ways:
Method 1 (evaporation): Addition of 100 μl stock solution of said peptide at a concentration of 4-6 mg/ml to each well of a 96-well half area plate (150 μl well size). Subsequently the solvent was evaporated by applying a vacuum until the solvent was completely removed.
Method 2 (precipitation): Addition of a certain volume of a stock solution of said peptide containing to each well of a 96-well half area plate followed by the addition of a certain volume of concentrated phosphoric acid to obtain a pH of 4.6 followed by addition of a certain volume of ethanol resulting in a final ethanol concentration of 20% v/v. Subsequently the plate was stored at 4° C. for 1 h and then centrifuged at 4,000 rpm for 20 min. Finally the supernatant was removed. The concentration of the stock solution was chosen in a way that the final amount of peptide after supernatant removal was >0.4 mg per well.
In both cases the stock solution was prepared by adding de-ionized water to a certain amount of powder of said peptide followed by a stepwise addition of small amounts of a concentrated sodium hydroxide solution until said peptide was completely in solution.
To determine solubility of a target peptide at different pH and organic solvent concentrations, two different buffer systems were used in independent experiments to cover the whole range from pH 3.0 to pH 11.0. Buffer system 1 covers pH 3.0-7.5 and buffer system 2 covers pH 7.5-11.0. For each buffer system 96 different solvent compositions were premixed in the following way: • 1. A low pH buffer (adjusted to either pH 3.0 or pH 7.5) and a high pH buffer (adjusted to either pH 7.5 or pH 11.0) were mixed at 8 different ratios to obtain values between pH 3.0 and pH 7.5 or pH 7.5 and pH 11.0, respectively. The total volume after mixing was 300 μl. • 2. 12 different amounts of organic solvent were then added to these buffers to obtain organic solvent (e.g. ethanol) concentrations between 0 and 70% w/w. • 3. Water was then added to obtain a total weight of 1.0 g of solvent in each well.
After preparing the 96 different solvent systems, 100 μl of each system was transferred to the 96-well plate containing the solid form of the target peptide (prepared as described in the section “96-well plate preparation”). The plate was then stored at a given temperature (between 5° C. and 70° C.) for a given time on a rotating shaker set to 400 rpm. At regular time intervals the plate was centrifuged (4,000 rpm for 10 min) and a 10 μl sample was taken from each well. The samples were then analysed by UV absorption at 280 nm for peptide quantification. Peptide concentration results are given as UV absorption at 280 nm of the sample subtracted UV absorption at 280 nm of a well comprising 10 μl water.
The buffers used were as follows: • Buffer system 1 (for the pH range from pH 3.0-7.5)
• Buffer system 2 (for the pH ranae from pH 7.5-11.0)
Solubility of liraglutide was determined using Assay (I) described herein. Liraglutide was prepared using Method 1 (evaporation) or Method 2 (precipitation) as described in subsection “96-well plate preparation”.

CCCCCCCCCCCCCCCC(=O)N[C@@H](CCC(=O)NCCCC[C@H](NC(=O)[C@H](C)NC(=O)[C@H](C)NC(=O)[C@H](CCC(N)=O)NC(=O)CNC(=O)[C@H](CCC(=O)O)NC(=O)[C@H](CC(C)C)NC(=O)[C@H](Cc1ccc(O)cc1)NC(=O)[C@H](CO)NC(=O)[C@H](CO)NC(=O)[C@@H](NC(=O)[C@H](CC(=O)O)NC(=O)[C@H](CO)NC(=O)[C@@H](NC(=O)[C@H](Cc1ccccc1)NC(=O)[C@@H](NC(=O)CNC(=O)[C@H](CCC(=O)O)NC(=O)[C@H](C)NC(=O)[C@@H](N)Cc1cnc[nH]1)[C@@H](C)O)[C@@H](C)O)C(C)C)C(=O)N[C@@H](CCC(=O)O)C(=O)N[C@@H](Cc1ccccc1)C(=O)N[C@H](C(=O)N[C@@H](C)C(=O)N[C@@H](Cc1c[nH]c2ccccc12)C(=O)N[C@@H](CC(C)C)C(=O)N[C@H](C(=O)N[C@@H](CCCNC(=N)N)C(=O)NCC(=O)N[C@@H](CCCNC(=N)N)C(=O)NCC(=O)O)C(C)C)[C@@H](C)CC)C(=O)O [liraglutide, Arg34,Lys26-(N-epsilon-(gamma-L-glutamyl(N-alfa-hexadecanoyl)))-GLP-1(7-37)]
0.8 mg/mL: Peptide concentration after 5 min (MeCN 31.8% w/w, pH 9.0, 5° C.) | Peptide concentration after 5 min (MeCN 31.8% w/w, pH 11.0, 5° C.) | Peptide concentration after 5 min (MeCN 38.2% w/w, pH 8.0, 5° C.) | Peptide concentration after 5 min (MeCN 38.2% w/w, pH 8.5, 5° C.) | Peptide concentration after 5 min (MeCN 44.5% w/w, pH 11.0, 5° C.)
0.9 mg/mL: Peptide concentration after 5 min (MeCN 19.1% w/w, pH 9.0, 5° C.) | Peptide concentration after 5 min (MeCN 31.8% w/w, pH 8.0, 5° C.) | Peptide concentration after 5 min (MeCN 31.8% w/w, pH 9.5, 5° C.) | Peptide concentration after 5 min (MeCN 44.5% w/w, pH 10.5, 5° C.)
2.6 mg/mL: Peptide concentration after 180 min (MeCN 19.1% w/w, pH 11.0, 5° C.)
2.9 mg/mL: Peptide concentration after 180 min (MeCN 38.2% w/w, pH 8.5, 5° C.) | Peptide concentration after 180 min (MeCN 44.5% w/w, pH 10.5, 5° C.) | Peptide concentration after 180 min (MeCN 44.5% w/w, pH 11.0, 5° C.)
3.5 mg/mL: Peptide concentration after 180 min (MeCN 25.5% w/w, pH 8.5, 5° C.)
2.3 mg/mL: Peptide concentration after 180 min (MeCN 19.1% w/w, pH 9.0, 5° C.)
3.9 mg/mL: Peptide concentration after 180 min (MeCN 31.8% w/w, pH 10.5, 5° C.) | Peptide concentration after 180 min (MeCN 38.2% w/w, pH 9.5, 5° C.)
3.2 mg/mL: Peptide concentration after 180 min (MeCN 25.5% w/w, pH 8.0, 5° C.) | Peptide concentration after 180 min (MeCN 38.2% w/w, pH 8.0, 5° C.) | Peptide concentration after 180 min (MeCN 38.2% w/w, pH 10.5, 5° C.)
3.1 mg/mL: Peptide concentration after 180 min (MeCN 25.5% w/w, pH 11.0, 5° C.)
3.6 mg/mL: Peptide concentration after 180 min (MeCN 31.8% w/w, pH 8.5, 5° C.) | Peptide concentration after 24 h (MeCN 31.8% w/w, pH 10.5, 5° C.)
3.0 mg/mL: Peptide concentration after 180 min (MeCN 31.8% w/w, pH 11.0, 5° C.)
3.7 mg/mL: Peptide concentration after 180 min (MeCN 44.5% w/w, pH 9.5, 5° C.) | Peptide concentration after 180 min (MeCN 44.5% w/w, pH 10.0, 5° C.)
2.5 mg/mL: Peptide concentration after 180 min (MeCN 19.1% w/w, pH 8.5, 5° C.)
0.4 mg/mL: Peptide concentration after 5 min (MeCN 38.2% w/w, pH 9.0, 5° C.)
1.2 mg/mL: Peptide concentration after 5 min (MeCN 19.1% w/w, pH 8.5, 5° C.) | Peptide concentration after 5 min (MeCN 25.5% w/w, pH 9.5, 5° C.) | Peptide concentration after 5 min (MeCN 38.2% w/w, pH 10.5, 5° C.)
1.4 mg/mL: Peptide concentration after 5 min (MeCN 19.1% w/w, pH 10.0, 5° C.) | Peptide concentration after 5 min (MeCN 19.1% w/w, pH 10.5, 5° C.) | Peptide concentration after 5 min (MeCN 25.5% w/w, pH 8.5, 5° C.) | Peptide concentration after 5 min (MeCN 25.5% w/w, pH 10.0, 5° C.)
2.8 mg/mL: Peptide concentration after 24 h (MeCN 31.8% w/w, pH 10.0, 5° C.) | Peptide concentration after 180 min (MeCN 44.5% w/w, pH 8.0, 5° C.)
1.0 mg/mL: Peptide concentration after 5 min (MeCN 19.1% w/w, pH 11.0, 5° C.) | Peptide concentration after 5 min (MeCN 25.5% w/w, pH 11.0, 5° C.)
1.3 mg/mL: Peptide concentration after 5 min (MeCN 31.8% w/w, pH 10.5, 5° C.) | Peptide concentration after 24 h (MeCN 44.5% w/w, pH 9.5, 5° C.) | Peptide concentration after 5 min (MeCN 44.5% w/w, pH 10.0, 5° C.)
0.6 mg/mL: Peptide concentration after 5 min (MeCN 38.2% w/w, pH 11.0, 5° C.) | Peptide concentration after 5 min (MeCN 50.9% w/w, pH 8.0, 5° C.)
1.7 mg/mL: Peptide concentration after 5 min (MeCN 44.5% w/w, pH 9.0, 5° C.)
0.7 mg/mL: Peptide concentration after 5 min (MeCN 44.5% w/w, pH 8.0, 5° C.)
3.3 mg/mL: Peptide concentration after 180 min (MeCN 19.1% w/w, pH 9.5, 5° C.) | Peptide concentration after 180 min (MeCN 31.8% w/w, pH 9.5, 5° C.) | Peptide concentration after 180 min (MeCN 44.5% w/w, pH 8.5, 5° C.)
1.5 mg/mL: Peptide concentration after 5 min (MeCN 25.5% w/w, pH 10.5, 5° C.) | Peptide concentration after 5 min (MeCN 38.2% w/w, pH 10.0, 5° C.)
>4.0 mg/mL: Peptide concentration after 24 h (MeCN 19.1% w/w, pH 8.5, 5° C.) | Peptide concentration after 24 h (MeCN 19.1% w/w, pH 9.0, 5° C.) | Peptide concentration after 24 h (MeCN 19.1% w/w, pH 9.5, 5° C.) | Peptide concentration after 24 h (MeCN 19.1% w/w, pH 10.0, 5° C.) | Peptide concentration after 180 min (MeCN 19.1% w/w, pH 10.5, 5° C.) | Peptide concentration after 24 h (MeCN 19.1% w/w, pH 10.5, 5° C.) | Peptide concentration after 24 h (MeCN 19.1% w/w, pH 11.0, 5° C.) | Peptide concentration after 24 h (MeCN 25.5% w/w, pH 8.0, 5° C.) | Peptide concentration after 24 h (MeCN 25.5% w/w, pH 8.5, 5° C.) | Peptide concentration after 180 min (MeCN 25.5% w/w, pH 9.0, 5° C.) | Peptide concentration after 24 h (MeCN 25.5% w/w, pH 9.0, 5° C.) | Peptide concentration after 180 min (MeCN 25.5% w/w, pH 9.5, 5° C.) | Peptide concentration after 24 h (MeCN 25.5% w/w, pH 9.5, 5° C.) | Peptide concentration after 24 h (MeCN 25.5% w/w, pH 10.0, 5° C.) | Peptide concentration after 24 h (MeCN 25.5% w/w, pH 10.5, 5° C.) | Peptide concentration after 24 h (MeCN 25.5% w/w, pH 11.0, 5° C.) | Peptide concentration after 24 h (MeCN 31.8% w/w, pH 8.0, 5° C.) | Peptide concentration after 24 h (MeCN 31.8% w/w, pH 8.5, 5° C.) | Peptide concentration after 24 h (MeCN 31.8% w/w, pH 9.0, 5° C.) | Peptide concentration after 24 h (MeCN 31.8% w/w, pH 9.5, 5° C.) | Peptide concentration after 180 min (MeCN 31.8% w/w, pH 10.0, 5° C.) | Peptide concentration after 24 h (MeCN 31.8% w/w, pH 11.0, 5° C.) | Peptide concentration after 24 h (MeCN 38.2% w/w, pH 8.0, 5° C.) | Peptide concentration after 24 h (MeCN 38.2% w/w, pH 8.5, 5° C.) | Peptide concentration after 24 h (MeCN 38.2% w/w, pH 9.0, 5° C.) | Peptide concentration after 180 min (MeCN 38.2% w/w, pH 10.0, 5° C.) | Peptide concentration after 24 h (MeCN 38.2% w/w, pH 10.0, 5° C.) | Peptide concentration after 24 h (MeCN 38.2% w/w, pH 11.0, 5° C.) | Peptide concentration after 24 h (MeCN 44.5% w/w, pH 8.0, 5° C.) | Peptide concentration after 24 h (MeCN 44.5% w/w, pH 8.5, 5° C.) | Peptide concentration after 24 h (MeCN 44.5% w/w, pH 9.0, 5° C.) | Peptide concentration after 24 h (MeCN 44.5% w/w, pH 10.0, 5° C.) | Peptide concentration after 24 h (MeCN 44.5% w/w, pH 10.5, 5° C.) | Peptide concentration after 24 h (MeCN 44.5% w/w, pH 11.0, 5° C.)
1.9 mg/mL: Peptide concentration after 5 min (MeCN 31.8% w/w, pH 10.0, 5° C.)
3.4 mg/mL: Peptide concentration after 180 min (MeCN 25.5% w/w, pH 10.0, 5° C.)
1.1 mg/mL: Peptide concentration after 5 min (MeCN 19.1% w/w, pH 9.5, 5° C.) | Peptide concentration after 5 min (MeCN 25.5% w/w, pH 8.0, 5° C.) | Peptide concentration after 5 min (MeCN 38.2% w/w, pH 9.5, 5° C.) | Peptide concentration after 5 min (MeCN 44.5% w/w, pH 8.5, 5° C.) | Peptide concentration after 5 min (MeCN 44.5% w/w, pH 9.5, 5° C.)
3.8 mg/mL: Peptide concentration after 180 min (MeCN 19.1% w/w, pH 10.0, 5° C.) | Peptide concentration after 180 min (MeCN 25.5% w/w, pH 10.5, 5° C.)
2.0 mg/mL: Peptide concentration after 180 min (MeCN 38.2% w/w, pH 9.0, 5° C.)
2.7 mg/mL: Peptide concentration after 180 min (MeCN 31.8% w/w, pH 8.0, 5° C.) | Peptide concentration after 180 min (MeCN 31.8% w/w, pH 9.0, 5° C.) | Peptide concentration after 180 min (MeCN 38.2% w/w, pH 11.0, 5° C.) | Peptide concentration after 180 min (MeCN 44.5% w/w, pH 9.0, 5° C.)
0.5 mg/mL: Peptide concentration after 5 min (MeCN 25.5% w/w, pH 9.0, 5° C.)
2.1 mg/mL: Peptide concentration after 5 min (MeCN 31.8% w/w, pH 8.5, 5° C.) | Peptide concentration after 24 h (MeCN 38.2% w/w, pH 10.5, 5° C.)
4.0 mg/mL: Peptide concentration after 24 h (MeCN 38.2% w/w, pH 9.5, 5° C.)
